From patent US20220048961A1, “TRANSFERRIN RECEPTOR TARGETING PEPTIDES” (FRED HUTCHINSON CANCER RESEARCH CENTER, priority 2018, published 2022) come the findings set out here.

The subject of this experiment is neurotensin receptor (CRE-driven luciferase). Description: CRE-luciferase reporter mice, whole-animal brain luminescence (IVIS). The experiment is classed as in vivo. As to conditions: 1.68 mg rolipram and 0.84 mg forskolin given together IP, luciferin four hours after, FIG. 31. On the technique in general: In a reporter assay the amount or activity of a reporter protein is the signal.

`COc1ccc(C2CNC(=O)C2)cc1OC1CCCC1` (stereo not shown) [rolipram]: the “CRE-driven luciferase induction (brain luminescence), positive control” value is “high levels of luminescence from the animal's brain”.
